Assay results taken from article PMC7773179, “Development and application of high-throughput screens for the discovery of compounds that disrupt ErbB4 signaling: Candidate cancer therapeutics” (PLoS ONE, 2020).

Tests used:
[1] = tested on: BaF3/EGFR+ErbB4 cells; assay: ErbB4-dependent (NRG1β-induced, IL3-independent) proliferation of BaF3/EGFR+ErbB4 cells, semi-automated MTT assay; type: cell-based, Mouse; conditions: for selective and potent inhibition of ErbB4-dependent cell proliferation (in words): ErbB4-dependent versus IL3-dependent proliferation; for IC50: Mus musculus, BaF3, read-out: IC50 against 0.3 nM NRG1β, three independent trials; for IC50 / NRG1β Emax ± SE in the presence of candidate: 120 h MTT; for NRG1β Emax ± SE in the presence of candidate: increasing NRG1β, three trials
Description: This proliferation is dependent upon exogenous ErbB4 expression.
As noted earlier, the BaF3/EGFR+ErbB4 cells are IL3 dependent and this dependency can be rescued by stimulation of ErbB4 coupling to cell proliferation. Therefore, the specificity of each of the 19 candidate ErbB4 inhibitors was tested by assaying inhibition of ErbB4-dependent and IL3-dependent cellular proliferation in parallel.

[2] = tested on: BaF3/EGFR+ErbB4 cells; assay: IL3-dependent proliferation of BaF3/EGFR+ErbB4 cells, semi-automated MTT assay; conditions: for IC50: Mus musculus, BaF3, 120 h; for IC50 against 0.1 nM IL3: three independent trials, 120 h MTT, NA = not active
Description: As noted earlier, the BaF3/EGFR+ErbB4 cells are IL3 dependent and this dependency can be rescued by stimulation of ErbB4 coupling to cell proliferation [8]. Therefore, the specificity of each of the 19 candidate ErbB4 inhibitors was tested by assaying inhibition of ErbB4-dependent and IL3-dependent cellular proliferation in parallel.

[3] = target: T1, ErbB4 (Homo sapiens, UniProt Q15303); assay: phospho-ErbB4 sandwich ELISA: stimulation of ErbB4 tyrosine phosphorylation in CEM/ErbB4 cells; type: cell-based; conditions: for Emax: percentage of ErbB4 tyrosine phosphorylation stimulated by 10 nM NRG1β, read-out: ErbB4 Tyrosine Phosphorylation Emax ± SE; for EC50: semi-automated, 0–30 μM, at least three independent trials, read-out: ErbB4 Tyrosine Phosphorylation EC50 ± SE
T1 construct: expressed in transfected cells; host or cells: CEM/ErbB4 cells
T1 sequence (Q15303 26-1308): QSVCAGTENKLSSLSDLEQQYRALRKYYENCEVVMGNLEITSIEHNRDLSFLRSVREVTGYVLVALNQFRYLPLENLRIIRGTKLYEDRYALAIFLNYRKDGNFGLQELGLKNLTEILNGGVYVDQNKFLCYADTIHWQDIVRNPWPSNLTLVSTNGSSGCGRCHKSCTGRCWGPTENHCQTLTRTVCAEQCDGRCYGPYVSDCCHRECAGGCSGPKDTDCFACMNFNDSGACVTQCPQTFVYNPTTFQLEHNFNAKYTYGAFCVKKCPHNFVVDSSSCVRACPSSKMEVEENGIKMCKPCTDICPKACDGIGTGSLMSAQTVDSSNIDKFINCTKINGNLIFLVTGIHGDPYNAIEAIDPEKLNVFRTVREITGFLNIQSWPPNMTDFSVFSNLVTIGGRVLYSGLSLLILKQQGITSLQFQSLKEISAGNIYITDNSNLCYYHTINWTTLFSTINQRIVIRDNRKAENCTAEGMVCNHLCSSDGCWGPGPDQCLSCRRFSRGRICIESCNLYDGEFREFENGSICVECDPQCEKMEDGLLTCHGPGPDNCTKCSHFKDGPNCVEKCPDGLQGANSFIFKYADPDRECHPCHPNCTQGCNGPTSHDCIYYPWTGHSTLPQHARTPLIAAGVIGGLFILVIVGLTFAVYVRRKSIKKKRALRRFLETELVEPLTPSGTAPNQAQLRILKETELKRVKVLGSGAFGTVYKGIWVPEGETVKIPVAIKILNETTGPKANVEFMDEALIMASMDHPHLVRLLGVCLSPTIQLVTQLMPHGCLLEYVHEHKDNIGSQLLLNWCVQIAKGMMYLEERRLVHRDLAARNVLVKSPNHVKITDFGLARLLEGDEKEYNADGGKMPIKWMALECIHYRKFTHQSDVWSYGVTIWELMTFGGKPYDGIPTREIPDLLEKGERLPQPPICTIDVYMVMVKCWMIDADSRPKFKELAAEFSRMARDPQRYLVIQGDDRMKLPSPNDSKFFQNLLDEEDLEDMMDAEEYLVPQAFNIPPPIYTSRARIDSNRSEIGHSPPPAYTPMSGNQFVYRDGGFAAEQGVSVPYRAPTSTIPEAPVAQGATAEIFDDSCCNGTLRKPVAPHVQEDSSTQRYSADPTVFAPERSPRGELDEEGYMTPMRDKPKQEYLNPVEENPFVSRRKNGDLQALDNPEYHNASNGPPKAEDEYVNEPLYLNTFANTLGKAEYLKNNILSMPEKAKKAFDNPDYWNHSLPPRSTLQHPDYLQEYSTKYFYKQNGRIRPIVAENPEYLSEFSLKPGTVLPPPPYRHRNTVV
Description: Our ultimate goal is the identification of ErbB4 partial agonists that inhibit coupling of ErbB4 to cell proliferation, preferably through stimulation of phosphorylation-dependent ErbB4 turnover and degradation. Thus, the first goal of these experiments is to develop and deploy an assay for stimulation of ErbB4 tyrosine phosphorylation. The CEM/ErbB4 cell line previously validated for assaying ligand-induced ErbB4 tyrosine phosphorylation was used to develop a 96-well assay for stimulation and inhibition of ErbB4 tyrosine phosphorylation. Briefly, ErbB4 tyrosine phosphorylation was assayed using a “sandwich” enzyme-linked immunosorbent assay (ELISA) kit (R&D Systems) that features an anti-ErbB4 capture antibody and an anti-phosphotyrosine detection antibody.
Lysates generated by a previously established protocol for stimulating ErbB4 tyrosine phosphorylation in CEM/ErbB4 cells were used to develop and evaluate the ELISA conditions. Briefly, the CEM/ErbB4 cells were starved for 24 hours in serum- and factor-free base medium (RPMI) before being stimulated for seven minutes on ice with NRG2β (full agonist positive control), NRG2β/Q43L (partial agonist positive control), or NRG2β diluent (mock stimulation negative control). The cells were then lysed, and the lysates were immediately assayed for ErbB4 tyrosine phosphorylation or stored at -80°C until assayed.
Ligand-induced ErbB4 tyrosine phosphorylation was stimulated using a published protocol. Briefly, the CEM/ErbB4 cells were starved for 24 hours in serum- and factor-free base medium (RPMI) before being stimulated for 7 minutes on ice with an ErbB4 ligand (NRG1β, NRG2β, or NRG2β/Q43L) or candidate small molecule ErbB4 partial agonists. The cells were then lysed using a published protocol, and the lysates were immediately assayed for ErbB4 tyrosine phosphorylation or stored at -80°C until assayed.
ErbB4 tyrosine phosphorylation was analyzed using a 96-well “sandwich” enzyme-linked immunosorbent assay (ELISA) kit from R&D Systems (Catalog number DYC2115-2), which features an anti-ErbB4 capture antibody and an anti-phosphotyrosine antibody that is coupled to horseradish peroxidase (HRP). First, each well in a 96-well flat-bottom plate (ELISA plate) was coated with the anti-ErbB4 capture antibody, which recognizes the amino terminus of ErbB4. Nonspecific binding sites were then treated with a blocking buffer (1% BSA in PBS). Lysate samples containing ErbB4 were then added to the wells and incubated to permit ErbB4 binding to the immobilized anti-ErbB4 antibody. Then, an anti-phosphotyrosine antibody tagged with HRP was used to detect and visualize the phosphorylated tyrosine residues of the immobilized ErbB4 molecules. Oxidation of 3,3´,5,5´-tetramethylbenzidine by HRP (stopped using sulfuric acid) is indicative of ErbB4 tyrosine phosphorylation and was detected by measuring absorption at 450 nm. The data generated during the course of validating these assay conditions can be found in a (S1 Data).
A Beckman Coulter Biomek 4000 automated liquid handling system was used to convert our standard, batch method for agonist stimulation of ErbB4 tyrosine phosphorylation to a semi-automated 96-well methodology. […] After stimulation, lysis buffer was added to each well and incubated for 20 minutes at 4°C with shaking. Following incubation, the plates were centrifuged at 3200 RCF for 20 minutes at 4°C.

[4] = read-out: IC50 against 0.1 nM IL3
[5] = read-out: IC50 against 0.1 nM IL3, extrapolated value

IC50 ([1]; NA = not active) | IC50 [2, 4] | Emax [3] | EC50 [3] | IC50 [2, 5] | IC50 against 0.1 nM IL3 [2] | IC50 ([1]; *Extrapolated value) | Structure (SMILES) | selective and potent inhibition of ErbB4-dependent cell proliferation (in words) [1] | NRG1β Emax ± SE in the presence of candidate ([1]; candidate 30 μM) | inhibition of NRG1β-stimulated ErbB4-dependent proliferation (in words) ([1]; candidate 30 μM)
6 µM | 28 µM | 4.7 ± 1.1% | 0.47 ± 0.38 µM | – | – | – | CCC(=O)NC(N(Cc1ccccc1)Cc1ccccc1)C(Cl)(Cl)Cl (centres unmarked) [SR-33483] | selectively and potently inhibit | 0 AU | –
0.11 µM | 0.45 µM | 5.9 ± 2.8% | < 0.3 µM | – | – | – | CCCOc1ccc(C(=O)C(CCCCC(CN(C)C)C(=O)c2ccc(OCCC)cc2)CN(C)C)cc1 (centres unmarked) [SR-33486] | selectively and potently inhibit | 0 AU | –
29 µM | – | 2.8 ± 0.4% | 0.68 ± 0.36 µM | – | no inhibition | – | CCOC(=O)C1=C(N)OC2=C(C(=O)CC(C)(C)C2)C1C1CCCCC1 (centres unmarked) [SR-33491] | selectively and potently inhibit | 0.15 ± 0.02 AU | –
12 µM | – | 1.8 ± 0.2% | 4.1 ± 2.9 µM | 81 µM | – | – | O=C(CC1c2ccccc2Oc2ccccc21)NCCOc1ccccc1 [SR-33492] | selectively and potently inhibit | 0.03 ± 0.01 AU | –
7 µM | – | 2.3 ± 0.4% | < 0.3 µM | 32 µM | – | – | O=C1NC2=Nc3ccccc3SC(c3ccccc3)=C2C(c2ccc(O)cc2)N1 (centres unmarked) [SR-33494] | selectively and potently inhibit | 0 AU | –
2.3 µM | 4.8 µM | 1.4 ± 0.4% | 1.5 ± 0.6 µM | – | – | – | O=C1NC(=O)/C(=C\c2ccc(OCc3ccc4ccccc4c3)c(I)c2)N1 [SR-33498] | – | 0 AU | –
0.39 µM | 0.72 µM | 2.9 ± 0.4% | < 0.3 µM | – | – | – | COc1cc(CNCC2CCNCC2)cc(Cl)c1OCc1ccc(C)cc1 [SR-33507] | – | 0 AU | completely inhibits
– | – | 1.4 ± 0.3% | 0.38 ± 0.25 µM | – | fails to inhibit | 32 µM | COc1ccc(C2CCCN2C(=O)c2c(-c3ccccc3Cl)noc2C)cc1 (centres unmarked) [SR-33509] | – | 0.11 ± 0.02 AU | –

Second part, the molecule before the results:

Structure (SMILES) | IC50 ([1]; NA = not active) | IC50 [2, 4] | Emax [3] | EC50 [3] | IC50 [2, 5] | IC50 against 0.1 nM IL3 [2] | IC50 ([1]; *Extrapolated value) | selective and potent inhibition of ErbB4-dependent cell proliferation (in words) [1] | NRG1β Emax ± SE in the presence of candidate ([1]; candidate 30 μM) | inhibition of NRG1β-stimulated ErbB4-dependent proliferation (in words) ([1]; candidate 30 μM)
O=S(=O)(NCc1cccnc1)c1ccc(Br)cc1Br [SR-33485] | 13 µM | – | 3 ± 0.9% | < 0.3 µM | 38 µM | – | – | – | 0.01 ± 0.02 AU | –
O=C(Nc1cccc(O)c1)c1cc2nc(-c3ccccc3)cc(-c3ccccc3)n2n1 [SR-33487] | 6.8 µM | – | 2.7 ± 0.2% | < 0.3 µM | 2100 µM | – | – | selectively and potently inhibit | 0.07 ± 0.01 AU | –
O=C(c1nn2c(c1Cl)NC(c1cccs1)CC2C(F)(F)F)N(Cc1ccccc1)Cc1ccccc1 (centres unmarked) [SR-33493] | 5.6 µM | 15 µM | 2.1 ± 3.8% | < 0.3 µM | – | – | – | – | 0 AU | –
O=[N+]([O-])c1ccc(CN2CCN(C3CCC(c4ccccc4)CC3)CC2)cc1 (centres unmarked) [SR-33497] | – | – | 1.8 ± 0.5% | < 0.3 µM | 390 µM | – | 47 µM | – | 0.09 ± 0.02 AU | –
Cc1nn(-c2ccccc2)c2c1C(c1ccccc1F)SCC(=O)N2 (centres unmarked) [SR-33510] | 11 µM | 29 µM | 1.2 ± 0.4% | 2 ± 0.8 µM | – | – | – | – | 0.03 ± 0.01 AU | –
CCOc1ccc(CN(C(=O)[C@H](N)Cc2c[nH]c3ccccc23)C2CC2)cc1 [SR-33511] | 6.8 µM | 13 µM | 5.2 ± 1% | 2.1 ± 1.3 µM | – | – | – | – | 0 AU | –
